Measurements taken from PMC5453556, “Designing small molecules to target cryptic pockets yields both positive and negative allosteric modulators” (PLoS ONE, 2017).

Tests used:
Assay type in all cases: biochemical
[1] = target: TEM β-lactamase (TEM, M182T variant) (Escherichia coli, UniProt P62593, M180T); assay: TEM β-lactamase nitrocefin hydrolysis activity assay (UV-vis, 482 nm); details: for % change in rate: 50 µM nitrocefin; for kcat: TEM + 100 µM compound, nitrocefin
chymotrypsin = target: T1, chymotrypsin (Bos taurus, UniProt P00766); assay: Chymotrypsin reaction, test for non-specific activity (410 nm); details: alternative enzyme chymotrypsin; 30 nM enzyme, 200 μM N-succinyl-Ala-Ala-Pro-Phe p-nitroanilide, 25°C
T1 construct: purchased Sigma-Aldrich
Procedure: (§1) Chymotrypsin reactions were followed at 410 nm using 30 nM enzyme and 200 μM N-succinyl-Ala-Ala-Pro-Phe p-nitroanilide at 25°C. β-galactosidase reactions were followed at 420 nm using 4 nM enzyme and 1 mM 2-nitrophenyl β-D-galactopyranoside at 37°C. […] Enzymes and substrates were purchased from Sigma-Aldrich.

β-galactosidase = β-galactosidase reaction, test for non-specific activity (420 nm); details: alternative enzyme β-galactosidase; 4 nM enzyme, 1 mM 2-nitrophenyl β-D-galactopyranoside, 37°C
Procedure: as §1

TEM T265V = TEM T265V (Escherichia coli, UniProt P62593, M180T/T261V)
TEM L220N = TEM L220N (Escherichia coli, UniProt P62593, L218N/M180T)
[2] = detergent-dependence: 0% Triton-X
[3] = detergent-dependence: 0.01% Triton-X

Row | Compound | % change in rate ([1]; 10x enzyme test: 1 nM TEM) | % change in rate ([1]; 10x enzyme test: 10 nM TEM) | kcat [1] [s⁻¹] | % change in rate [1, 2] | % change in rate [1, 3] | % change in rate (chymotrypsin) [%] | % change in rate (β-galactosidase) | kcat (TEM T265V) [s⁻¹] | % modulation of kcat / Km ([1]; TEM, 100 µM compound vs no compound) [%] | decrease of kcat/Km ([1]; TEM, as worded in the text (decreasing kcat/Km by)) [%] | kcat (TEM L220N) [s⁻¹]
1 | c1nc(NCCCN2CCOCC2)c2c3c(sc2n1)CCCC3 [compound 2] | +38% | +33% | 334 ± 5 | +30% | +33% | -1 | +5% | 307 ± 17 | – | – | –
2 | COc1cccc(C(=O)C[C@@H](c2ccccc2)C(C)(C)[N+](=O)[O-])c1 (racemic) [compound 3] | -47% | -48% | 256 ± 28 | -40% | -45% | -2 | +3% | – | -59 | 59 | –
3 | Oc1ccc(CC[C@H]2CC[C@H](c3ccc(O)cc3)CO2)cc1 (relative stereo) [compound 1] | +65% | – | 527 ± 8 | – | +66% | -5 | +2% | – | – | – | 5.2 ± 0.3
